Positions count from the first letter of the chain named. Where a SMILES comes first, the peptide text is derived from it. Bridges are numbered along the chain shown (N, C = ends). [ ]: non-standard residue; d: D form. Dap(N3) = [N-]=[N+]=NC[C@H](N)C(=O)O
How the values were obtained:
[1] = molecular target: T1, CK2α (Homo sapiens, UniProt P68400, K74A/K75A/K76A/R21S); assay: Isothermal titration calorimetry, direct binding to CK2α; conditions: ITC, 25°C, CK2α_KA, Tris 200 mM, NaCl 300 mM, 10% DMSO, single site binding model
T1 construct: CK2α_KA (residues 2 -329) contained four; His6 (N, cleaved yes); made in house; host or cells: Escherichia coli BL21(DE3)
T1 sequence (P68400 2-329 R21S/K74A/K75A/K76A): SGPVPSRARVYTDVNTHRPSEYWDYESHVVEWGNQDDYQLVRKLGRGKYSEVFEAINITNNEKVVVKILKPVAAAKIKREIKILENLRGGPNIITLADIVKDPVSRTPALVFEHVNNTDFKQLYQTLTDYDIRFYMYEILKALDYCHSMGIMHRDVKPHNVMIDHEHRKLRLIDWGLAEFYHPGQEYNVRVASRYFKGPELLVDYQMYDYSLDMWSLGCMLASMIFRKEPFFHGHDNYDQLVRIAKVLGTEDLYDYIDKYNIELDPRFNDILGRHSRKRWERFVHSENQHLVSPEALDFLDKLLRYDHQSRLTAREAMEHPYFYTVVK
Protocol: (§1) lysed using a high-pressure homogeniser.
(§2) The soluble supernatant was applied on a […]
(§3) mM NaCl, 1mM DTT, 1mM EDTA, pH 8.5). 100µL of the precision protease was loaded onto the […]
Pure protein was concentrated to 15 mg/mL and flash frozen in liquid N2. […]
(§4) 1.4.3. Isothermal Calorimetry Titration
(§5) 1.4.3.1. Direct binding assay
(§6) DMSO) and concentrated to 20-50 μM. Compounds in 100× stock solutions were diluted into the […]
(§7) Control titrations were performed, and the […]

[2] = system: HCT116 cells; assay: cells; type: cell-based, human; conditions: Homo sapiens, HCT-116, 96 h; HCT116 cells, 4 day incubation, SYTOX green imaging, average of at least four independent repeats; read-out: GI50
Protocol: (§8) page 47: 1.5. Biological experimental 1.5.1. […] The experiment was performed in duplicates. 1.5.2. […] 1.5.3. […] 46

[3] = system: U2OS cells; assay: cells; type: cell-based, human; conditions: Homo sapiens, 96 h; U2OS cells, 4 day incubation, SYTOX green imaging, average of at least four independent repeats; read-out: GI50
Protocol: as §8

[4] = molecular target: T2, CK2α (Homo sapiens, UniProt P68400); assay: Fluorescence polarisation assay: displacement of fluorescein-labelled CK2β-derived probe from CK2α; type: binding; conditions: FP, 15 µM test compound, 450 nM CK2α, 7.4 nM CK2β_pep probe, 350 mM NaCl, 20 mM Mes pH 6.5, 30 min incubation, triplicates; approximate; read-out: % inhibition at 15 μM (CK2β-like probe displacement)
T2 construct: CK2α_WT was used (residues 2-329); His6 (N, cleaved yes); made in house; host or cells: Escherichia coli BL21(DE3)
T2 sequence (P68400 2-329): T1 sequence (P68400 2-329 R21S/K74A/K75A/K76A) with S20R, A73K, A74K, A75K
Text: Molecular modelling identified Cys2 and Gly11 of Pc,[34] corresponding to P185 and P194 of CK2β, as suitable residues to staple: they make negligible contributions to the binding and are positioned at a suitable distance from each other to accommodate a 2C-CuAAC staple (ESI, Fig. S1 ^†). To cyclise the peptide, azido amino acids bearing one-carbon-atom side chains (Fmoc-Aza-OH) were used in combination with aliphatic linkers of different lengths as proposed by molecular modelling (Fig. 2 and ESI Table S1 ^†). The ability of the synthesised macrocycles to disrupt the α/β PPI of CK2 was then tested in a preliminary fluorescent polarisation assay (FP) (Fig. 2). […]
as §1, §2, §3
Pure protein was concentrated to 15 mg/mL and flash frozen in liquid N2.
1.4.2. Fluorescent Polarisation anisotropy
Approximate % inhibition of
The experiment was performed in triplicates.
as §4, §5, §6, §7

[5] = molecular target: T3, CK2α/CK2β interaction (Homo sapiens, UniProt P68400); assay: ITC competition assay: CK2β binding to CK2α alone and in the presence of peptide; conditions: 25°C
T3 construct: CK2α_WT was used (residues 2-329); His6 (N, cleaved yes); made in house; host or cells: Escherichia coli BL21(DE3)
T3 sequence (P68400 2-329): T1 sequence (P68400 2-329 R21S/K74A/K75A/K76A) with S20R, A73K, A74K, A75K
Protocol: We then wanted to investigate whether the peptides would be able to inhibit the binding of the β subunit to the α subunit. To this end, the binding affinity of the regulatory β subunit for the catalytic domain was determined via ITC (Kd 9 nM). This was then repeated in the presence of 100 μM P1-C4 and P2-C4 (ESI, Table S4 ^†). […] As one of the key roles of CK2β is to recruit substrates to the kinase, the effect of PPI inhibition on substrate phosphorylation was studied using CK2β dependent and independent substrates. […] It should be noted that the kinase assay was performed using the pre-formed CK2α/β complex as the ability of CK2α to phosphorylate eIF2β requires the presence of the CK2β subunit.
1.4.3.2. Competition assay […]
concentrated to 4-6 μM. CK2β (9.3 mg/mL, 20 mM Tris pH 8.5, 500 mM NaCl) was diluted in Tris buffer (200 mM, NaCl, 300 mM, 10% DMSO) and concentrated to 40 μM. In a typical experiment, […]
performed at 150 second intervals. The syringe was loaded with CK2β and rotated at 750 rpm. The same experiment was repeated in the presence of the peptide s: compounds at 1 mM in DMSO were added to the solutions of CK2α and CK2β (prepared as described above) to a final concentration of […]
binding model using Origin software. […]
(CK2β-RAD) 200s, baseline 120s (assay buffer), control loading 200s (RAD), baseline 150s (assay buffer), ligand binding (association) 400s (CK2α K74A and CAM7117) and ligand dissociation 600s (assay buffer), followed by regeneration and next cycles. […]
GraphPad. The results are the average of 4 repeats and error shown as SEM.
Figure S10- Sensorgrams of the BLI competition experiments to assess the ability of P2-C4 to […] the CK2α/CK2β-RAD complex. a) Concentration of peptide ranging from 10 to 0.025 μM and 0 μM. b) Concentration of peptide ranging from 10 to 5 nM and 0 nM.
(1 picture or pasted object on this page, not shown here)

[6] = pH 6.5

CC[C@H](C)[C@@H]1NC(=O)[C@H](CCCCN)NC(=O)[C@H](Cc2ccccc2)NC(=O)CNC(=O)[C@H](Cc2ccc(O)cc2)NC(=O)[C@H](CC(C)C)NC(=O)[C@H](CCCNC(=N)N)NC(=O)[C@@H](NC(=O)CNC(C)=O)CSSC[C@@H](C(=O)NCC(N)=O)NC(=O)CNC(=O)[C@H](Cc2c[nH]cn2)NC1=O [Pc, reference compound] (Ac-GCRLYGFKIHGCG-NH2; disulfide 2-12)
Kd [1]: 1 µM

O=C(O)c1ccc2c(c1)nc(Nc1cccc(Cl)c1)c1ccncc12 [CX4945, reference compound]
GI50 [2]: 14 ± 2 µM
GI50 [3]: 7 ± 1 µM

CC(=O)NCC(=O)N[C@@H](CN=[N+]=[N-])C(=O)N[C@@H](CCCNC(=N)N)C(=O)N[C@@H](CC(C)C)C(=O)N[C@@H](Cc1ccc(O)cc1)C(=O)NCC(=O)N[C@@H](Cc1ccccc1)C(=O)N[C@@H](CCCCN)C(=O)N[C@@H](Cc1c[nH]c2ccccc12)C(=O)N[C@@H](Cc1c[nH]cn1)C(=O)N[C@@H](CN=[N+]=[N-])C(=O)NCC(=O)NCC(N)=O [P2] (Ac-G[Dap(N3)]RLYGFKWH[Dap(N3)]GG-NH2)
Kd [1]: 44 µM

CC[C@H](C)[C@@H]1NC(=O)[C@H](CCCCN)NC(=O)[C@H](Cc2ccccc2)NC(=O)CNC(=O)[C@H](Cc2ccc(O)cc2)NC(=O)[C@H](CC(C)C)NC(=O)[C@H](CCCNC(=N)N)NC(=O)[C@@H](NC(=O)CNC(C)=O)Cn2cc(nn2)-c2cc(C(=O)O)cc(c2)-c2cn(nn2)C[C@@H](C(=O)NCC(=O)NCC(N)=O)NC(=O)[C@H](Cc2c[nH]cn2)NC1=O [P1-C4]
inhibition at 15 µM [4]: 93 ± 1%
Kd [1]: 0.46 µM
Binding of CK2β to CK2α in the presence of peptide ([5]; 100 μM peptide, preliminary assay): no binding of CK2β to CK2α was detected

GXC2RLYGFKIHXC2GG (sidechain bridge or staple) [P1-C2]
Solubility under the assay conditions [6]: insoluble

CK2β: regulatory β subunit of CK2, recombinant construct (1-198)
Kd ([5]; CK2β in the syringe, CK2α in the cell, no peptide, read-out: Kd of the regulatory β subunit for the catalytic domain CK2α): 0.009 µM

CC[C@H](C)[C@@H]1NC(=O)[C@H](CCCCN)NC(=O)[C@H](Cc2ccccc2)NC(=O)CNC(=O)[C@H](Cc2ccc(O)cc2)NC(=O)[C@H](CC(C)C)NC(=O)[C@H](CCCNC(=N)N)NC(=O)[C@@H](NC(C)=O)Cn2cc(nn2)CCc2cn(nn2)C[C@@H](C(N)=O)NC(=O)[C@H](Cc2c[nH]cn2)NC1=O [P0-C1]
inhibition at 15 µM [4]: 0.6 ± 0.5%

CC[C@H](C)[C@@H]1NC(=O)[C@H](CCCCN)NC(=O)[C@H](Cc2ccccc2)NC(=O)CNC(=O)[C@H](Cc2ccc(O)cc2)NC(=O)[C@H](CC(C)C)NC(=O)[C@H](CCCNC(=N)N)NC(=O)[C@@H](NC(=O)CNC(C)=O)Cn2cc(nn2)Cc2cn(nn2)C[C@@H](C(=O)NCC(=O)NCC(N)=O)NC(=O)[C@H](Cc2c[nH]cn2)NC1=O [P1-C3]
Solubility under the assay conditions [6]: insoluble
